From PMC7571145, “Multistep Synthesis and In Vitro Anticancer Evaluation of 2-Pyrazolyl-Estradiol Derivatives, Pyrazolocoumarin-Estradiol Hybrids and Analogous Compounds” (Molecules, 2020)

Key:
MCF-7 cells = assay: MTT cytotoxicity assay on MCF-7 cells; type: cell-based; settings: for primary growth inhibitory screen, cell viability, MCF-7: 2.5 µM, 72 h, mean±SD, untreated control about 100; for IC50: Homo sapiens, MCF7, 72 h, compounds 1-7 µM, mean ± SD, read-out: IC50 on MCF-7
Procedure: (§1) Cytotoxicity screens were performed to assess the in vitro anticancer activity of the synthesized A-ring-linked 2-pyrazoles of estradiol, the pyrazolocoumarin-estradiol hybrids, and their structurally simplified non-steroidal analogs on various cancerous cell lines such as MCF-7, PC-3, DU145, and HeLa and on non-cancerous MRC-5 fibroblasts. The 2-acetyl-phenol starting materials (4, 5, and 15) were also included for comparison. All compounds were applied in 2.5 µM concentration for 72 h. The obtained cell viability data were used to construct a heat map (Figure 2) in order to select compounds that exert cancer cell line-specific cytotoxicity. […] Furthermore, some compounds discriminated only DU145 cells and could eliminate these type of prostate cancer cells.
(§2) To understand structure-function relationships, we also included the structural analogs of the selected compounds, namely 7a (C-17 acetate of 8a), 8c (C-17 OH counterpart of 7c), and 9a (steroidal pair of 19a) into subsequent analyses. […] For this, compounds were applied on MCF-7, PC-3, DU145, and HeLa and on non-cancerous MRC-5 fibroblasts in various concentrations for 72 h or were treated with cisplatin at different concentrations. On the viability data, dose–response curves were fitted (Figure S1) and IC50 values were calculated accordingly (Table 3). In agreement with the primary cytotoxicity screen (Table S1), the obtained IC50 concentrations clearly indicated which compound was selectively effective on one or more cancer cell lines. […] Typically, acetylated steroidal pyrazoles were less favorable than deacetylated counterparts due to reduced cancer cell selectivity (7c, 10a).
(§3) To evaluate the in vitro pharmacological effects of the synthesized molecules, each compound was first dissolved in cell culture grade DMSO (Sigma) to a final concentration of 10 mM. Using MTT colorimetric assay, the cytotoxicity of these compounds was evaluated on cancerous (MCF-7, HeLa, DU145, PC-3) and non-cancerous (MRC-5) cell lines. Briefly, 5000 cells/well of each cell line were seeded in 96-well plates and were left to grow overnight in a 5% CO2 atmosphere at 37 °C. On the next day, cells were treated with each derivative separately, in case of the primary screen, or only with the selected compounds upon IC50 determination. Cells were incubated with the test compounds for 72 h in a 5% CO2 atmosphere at 37 °C. End point was measured by incubating cells for 1 h with 0.5 mg/mL of MTT reagent (Serva) dissolved in serum free culture medium. The formazan crystals formed by metabolically active cells were later dissolved in DMSO. Optical density of the obtained solutions was measured at 570 nm using a Synergy HTX plate reader. […] The analysis and conclusions were made based on three independent experiments. Normalized data were analyzed and the heat map was constructed using GraphPad Prism 7 software.

PC-3 cells = assay: MTT cytotoxicity assay on PC-3 prostate cancer cells; type: cell-based; settings: for primary growth inhibitory screen, cell viability, PC-3: 2.5 µM, 72 h, mean±SD, untreated control about 100; for IC50: Homo sapiens, PC-3, 72 h, compounds 1-7 µM, mean ± SD, read-out: IC50 on PC-3
Procedure: as §1, §2, §3

DU145 cells = assay: MTT cytotoxicity assay on DU145 prostate cancer cells; type: cell-based; settings: for primary growth inhibitory screen, cell viability, DU145: 2.5 µM, 72 h, mean±SD, untreated control about 100; for IC50: Homo sapiens, DU-145, 72 h, compounds 1-7 µM, mean ± SD, read-out: IC50 on DU145
Procedure: as §1, §2, §3

MRC-5 fibroblasts = assay: MTT cytotoxicity assay on non-cancerous MRC-5 fibroblasts; type: cell-based; settings: 72 h; for primary growth inhibitory screen, cell viability, MRC-5 / effect on non-cancerous fibroblasts: 2.5 µM; for primary growth inhibitory screen, cell viability, MRC-5 / IC50: MTT; for primary growth inhibitory screen, cell viability, MRC-5: mean±SD, untreated control about 100; for effect on non-cancerous fibroblasts: based on the heat map; for IC50: Homo sapiens, MRC5, compounds 1-7 µM, mean ± SD, read-out: IC50 on MRC-5
Procedure: as §1, §2, §3

HeLa cells = assay: MTT cytotoxicity assay on HeLa cells; type: cell-based; settings: 72 h; for primary growth inhibitory screen, cell viability, HeLa: 2.5 µM, mean±SD, untreated control about 100; for IC50: Homo sapiens, HeLa, compounds 1-7 µM, mean ± SD, read-out: IC50 on HeLa
Procedure: as §1, §2, §3

Compound | primary growth inhibitory screen, cell viability, MCF-7 (MCF-7 cells) | melting point | primary growth inhibitory screen, cell viability, PC-3 (PC-3 cells) | primary growth inhibitory screen, cell viability, DU145 (DU145 cells) | primary growth inhibitory screen, cell viability, MRC-5 (MRC-5 fibroblasts) | primary growth inhibitory screen, cell viability, HeLa (HeLa cells) | IC50 (MCF-7 cells) [µM] | IC50 (PC-3 cells) [µM] | IC50 (DU145 cells) [µM] | effect on non-cancerous fibroblasts (MRC-5 fibroblasts) | IC50 (MRC-5 fibroblasts) [µM] | IC50 (HeLa cells) [µM]
OCc1cn(-c2ccc(Cl)cc2)nc1-c1cc2c(cc1O)CCCC2 [Compound 18c, 3-(1′-(4″-Chlorophenyl)-4′-(hydroxymethyl)-1′H-pyrazol-3′-yl)-5,6,7,8-tetrahydro-2-naphthol] | ≥ 100±4.7 | 154 to 156 °C | 90.9±3.0 | ≥ 100±4.3 | ≥ 100±2.3 | ≥ 100±6.6 |  |  |  |  |  | 
CC(=O)O[C@H]1CC[C@H]2[C@@H]3CCc4cc(O)c(-c5nn(-c6ccc(Cl)cc6)cc5C=O)cc4[C@H]3CC[C@]12C [Compound 7c, 2-(1′-(4″-Chlorophenyl)-4′-formyl-1′H-pyrazol-3′-yl)-estra-1,3,5(10)-triene-3,17β-diol-17-acetate] | 57.4±10.6 | 268 to 270 °C | 36.0±4.5 | 70.4±3.6 | 78.9±4.3 | 94.1±1.9 | 1.99 ± 1.1 | 2.14 ± 1.1 | 3.37 ± 1 | no or very mild effect | 4.76 ± 1.1 | 5.32 ± 1.1
Cc1ccc(-n2cc(C=O)c(-c3cc4c(cc3O)CC[C@@H]3[C@@H]4CC[C@]4(C)[C@@H](O)CC[C@@H]34)n2)cc1 [Compound 8b, 2-(4′-Formyl-1′-(4″-tolyl)-1′H-pyrazol-3′-yl)-estra-1,3,5(10)-trien-3,17β-diol] | ≥ 100±8.2 | > 190 °C (dec.) | 67.8±3.8 | ≥ 100±10.2 | ≥ 100±2.4 | 92.2±8.5 |  |  |  |  |  | 
Cc1ccc(-n2cc3c(=O)oc4cc5c(cc4c3n2)CCCC5)cc1 [Compound 19b, 2-(4′-Tolyl)-7,8,9,10-tetrahydrobenzo[6,7]chromeno[4,3-c]pyrazol-4(2H)-one] | ≥ 100±4.8 | 224 to 226 °C | 84.1±5.2 | 100.6±6.3 | ≥ 100±0 | ≥ 100±2.4 |  |  |  |  |  | 
O=c1oc2cc3c(cc2c2nn(-c4ccccc4)cc12)CCCC3 [Compound 19a, 2-Phenyl-7,8,9,10-tetrahydrobenzo[6,7]chromeno[4,3-c]pyrazol-4(2H)-one] | ≥ 100±3.9 | 221 to 223 °C | 95.4±1.3 | 21.6±0.5 | ≥ 100±3.0 | ≥ 100±8.7 | 6.83 ± 1.1 | 4.7 ± 1 | 1.41 ± 1.1 | no or very mild effect | > 7 | > 7
C[C@]12CC[C@@H]3c4cc(-c5nn(-c6ccccc6)cc5C=O)c(O)cc4CC[C@H]3[C@@H]1CC[C@@H]2O [Compound 8a, 2-(4′-Formyl-1′-phenyl-1′H-pyrazol-3′-yl)-estra-1,3,5(10)-trien-3,17β-diol] | 100.9±4.8 | 172 to 174 °C | 54.9±3.0 | 108.8±4.1 | 99.9±3.3 | 100.4±1.6 | 5.03 ± 1 | 3.05 ± 1 | 6.46 ± 1 | no or very mild effect | 5.12 ± 1 | 4.09 ± 1
C[C@]12CC[C@@H]3c4cc(-c5nn(-c6ccccc6)cc5CO)c(O)cc4CC[C@H]3[C@@H]1CC[C@@H]2O [Compound 11a] | 93.4±3.7 | 141 to 143 °C | 59.7±3.2 | 98.2±5.4 | ≥ 100±8.2 | 75.4±1.1 | 6.8 ± 1 | 2.9 ± 1.3 | > 7 | no or very mild effect | > 7 | 4.3 ± 1
O=c1oc2cc3c(cc2c2nn(-c4ccc(Cl)cc4)cc12)CCCC3 [Compound 19c, 2-(4′-Chlorophenyl)-7,8,9,10-tetrahydrobenzo[6,7]chromeno[4,3-c]pyrazol-4(2H)-one] | ≥ 100±3.8 | 291 to 293 °C | 79.1±7.8 | ≥ 100.6±10.8 | ≥ 100±2.5 | ≥ 100±8.3 |  |  |  |  |  | 
CC(=O)c1cc2c(cc1O)CCCC2 [Compound 15, 3-Acetyl-5,6,7,8-tetrahydro-2-naphthol] | ≥ 100±1.9 | 70 to 72 °C | ≥ 100±2.2 | ≥ 100±6.7 | ≥ 100±3.7 | 53.8±8.3 | > 7 | > 7 | > 7 | no or very mild effect | > 7 | 3.6 ± 1.2
CC(=O)O[C@H]1CC[C@H]2[C@@H]3CCc4cc(O)c(-c5nn(-c6ccccc6)cc5C=O)cc4[C@H]3CC[C@]12C [Compound 7a, 2-(4′-Formyl-1′-phenyl-1′H-pyrazol-3′-yl)-estra-1,3,5(10)-triene-3,17β-diol-17-acetate] | 98.6±5.2 | 230 to 232 °C | 87.8±7.1 | 108.7±9.1 | ≥ 100±5.7 | 102.7±2.7 | 4.49 ± 1 | 3.63 ± 1 | 6.93 ± 1 |  | 5.9 ± 1 | 4.18 ± 1
